For 21 compounds, inhibition results are on record in patent publication US20230374034A1, “NOVEL BICYCLIC COMPOUNDS” (PRISM BIOLAB CO., LTD., priority 2020, published 2023).

For this assay, the system named is NICD (Notch intracellular domain) CSL-bla reporter in HeLa cells. Description: Notch assay (CellSensor T-REx NICD CSL-bla HeLa beta-lactamase reporter; Method 1 / Method 2). It is filed as cell-based. The conditions noted are these: Homo sapiens, 10 μM compound, Method 1 (10× compound prepared in assay medium, added to plated cells), read-out: inhibiton (%) at 10 μM. An excerpt:
We used the CellSensor T-REx™ NICD CSL-bla HeLa cell line, which was engineered by lentiviral transduction of HeLa cells with a Notch response element driving beta-lactamase reporter gene expression (CSL-bla) along with DOX (doxycycline)-inducible NICD (Notch intracellular domain) constructs. Addition of DOX to these cells allows for regulated NICD transcription factor expression and subsequent beta-lactamase expression.
Specifically, the following protocol was used.
NOTCH ASSAY PROTOCOL (Method 2)
• 1. Add 40 nL/well of working concentration of 1000× compound to 384-well assay plate with Echo. • 2. Plate Cells: 35 μl/well of HeLa/T-REx™ NICD CSL-bla cells at 10^3 cells/well complete medium into 384-well plate. • 3. Add 5 μl 8× Doxycycline in Assay Medium to the treated wells, and 5 μl Assay Medium to the Untreated and cell free control wells. • 4. Incubate the assay plate in a humidified 37° C./5% CO2 incubator for 16-20 hours. • 5. Preparation of 6× LiveBLAzer™-FRET B/G Substrate (CCF4-AM) Mixture according to the manual and cell loading should be done in the absence of direct strong lighting. • 6. Remove assay plate from the humidified 37° C./5% CO2 incubator. Add 8 μl of 6× Substrate Mixture from Step 5 to each well. Cover the plate to protect it from light and evaporation. Incubate at room temperature for 4 hours. • 7. Reading an Assay Plate using the following filter selections:
• 8. Data analysis: Use the assay plate layout to identify the location of the Cell-free wells. These control wells are used for background subtraction. Determine the average emission from the Cell-free wells at both 460 nm (Average Blue Background) and 530 nm(Average Green Background). Subtract the Average Blue Background (data collected at 460 nm) from all of the blue emission data. Subtract the Average Green background (data collected at 530 nm) from all of the green emission data. Calculate the Blue/Green Emission Ratio for each well, by dividing the background-subtracted blue emission values by the background-subtracted green emission values.
Instead of Step 1 to Step 3, the following Step a to Step d can also be performed. The subsequent steps are the same as Method 2, after Step 4 (Method 1). • a. Plate Cells: 32 μL/well of HeLa/T-REx™ NICD CSL-bla cells at 10^3 cells/well complete medium into 384-well plate. • b. Prepare 10× compounds in assay medium. • c. Add 4 μL compounds or 1% DMSO in assay medium to the cells. • d. Add 4 μL 10×Doxycycline in Assay Medium to the treated wells, and 4 μL Assay Medium to the Untreated and cell free control wells.
The results are shown in Table 13 (Table 13-1 to Table 13-2).
For the compound `CC(C)COC(=O)N1O[C@H](C(C)C)C(=O)N2C1CN(Cc1cccc3ccccc13)C(=O)[C@@H]2Cc1ccc(O)cc1` (stereo partly drawn) [Compound I-1, (3R,6S)-isobutyl 6-(4-hydroxybenzyl)-3-isopropyl-8-(naphthalen-1-ylmethyl)-4,7-dioxohexahydropyrazino[2,1-c][1,2,4]oxadiazine-1(6H)-carboxylate], the inhibition at 10 µM was determined as 55.9%.
For `CCCCCCOC(=O)N1O[C@H](CCCC)C(=O)N2C1CN(CCC(C)C)C(=O)[C@@H]2Cc1ccc(O)cc1` (stereo partly drawn) [Compound I-2, (3R,6S)-hexyl 3-butyl-6-(4-hydroxybenzyl)-8-isopentyl-4,7-dioxohexahydropyrazino[2,1-c][1,2,4]oxadiazine-1(6H)-carboxylate] the value was 53.5%.
For the compound `CCCCCCOC(=O)N1O[C@@H](C(C)C)C(=O)N2C1CN(Cc1ccccc1)C(=O)[C@@H]2Cc1ccc(O)cc1` (stereo partly drawn) [Compound I-3, (3S,6S)-hexyl 8-benzyl-6-(4-hydroxybenzyl)-3-isopropyl-4,7-dioxohexahydropyrazino[2,1-c][1,2,4]oxadiazine-1(6H)-carboxylate], the inhibition at 10 µM stood at 53.6%.
For `CCCCCCOC(=O)N1O[C@@H](CCCC)C(=O)N2C1CN(Cc1ccccc1)C(=O)[C@@H]2Cc1ccc(O)cc1` (stereo partly drawn) [Compound I-4, (3S,6S)-hexyl 8-benzyl-3-butyl-6-(4-hydroxybenzyl)-4,7-dioxohexahydropyrazino[2,1-c][1,2,4]oxadiazine-1(6H)-carboxylate] the value was 57.1%; for `CCCCCCOC(=O)N1O[C@@H](CC(C)C)C(=O)N2C1CN(Cc1ccccc1)C(=O)[C@@H]2Cc1ccc(O)cc1` (stereo partly drawn) [Compound I-5, (3S,6S)-hexyl 8-benzyl-6-(4-hydroxybenzyl)-3-isobutyl-4,7-dioxohexahydropyrazino[2,1-c][1,2,4]oxadiazine-1(6H)-carboxylate], 66.1%.
In the case of `CCCCCCOC(=O)N1O[C@@H](Cc2ccccc2)C(=O)N2C1CN(Cc1ccccc1)C(=O)[C@@H]2Cc1ccc(O)cc1` (stereo partly drawn) [Compound I-6, (35,6S)-hexyl 3,8-dibenzyl-6-(4-hydroxybenzyl)-4,7-dioxohexahydropyrazino[2,1-c][1,2,4]oxadiazine-1(6H)-carboxylate] it was 62.1%.
In the case of `CC(C)[C@H]1ON(C(=O)OCC2CCCCC2)C2CN(Cc3ccccc3)C(=O)[C@H](Cc3ccc(O)cc3)N2C1=O` (stereo partly drawn) [Compound I-7, (3R,6S)-cyclohexylmethyl 8-benzyl-6-(4-hydroxybenzyl)-3-isopropyl-4,7-dioxohexahydropyrazino[2,1-c][1,2,4]oxadiazine-1(6H)-carboxylate] it was 55.5%.
As for `CCCC[C@@H]1ON(C(=O)OCc2ccccc2)C2CN(CCCC)C(=O)[C@H](Cc3ccc(O)cc3)N2C1=O` (stereo partly drawn) [Compound I-8, (3S,6S)-benzyl 3,8-dibutyl-6-(4-hydroxybenzyl)-4,7-dioxohexahydropyrazino[2,1-c][1,2,4]oxadiazine-1(6H)-carboxylate], the inhibition at 10 µM is 60.2%.
In the case of `CC(C)CCN1CC2N(C(=O)OCc3cccc4ccccc34)O[C@H](C(C)C)C(=O)N2[C@@H](Cc2ccc(O)cc2)C1=O` (stereo partly drawn) [Compound I-9, (3R,6S)-naphthalen-1-ylmethyl 6-(4-hydroxybenzyl)-8-isopentyl-3-isopropyl-4,7-dioxohexahydropyrazino[2,1-c][1,2,4]oxadiazine-1(6H)-carboxylate] it was 70%; in that of `CCCC[C@H]1ON(C(=O)OCc2cccc3ccccc23)C2CN(CC3CCCCC3)C(=O)[C@H](Cc3ccc(O)cc3)N2C1=O` (stereo partly drawn) [Compound I-10, (3R,6S)-naphthalen-1-ylmethyl 3-butyl-8-(cyclohexylmethyl)-6-(4-hydroxybenzyl)-4,7-dioxohexahydropyrazino[2,1-c][1,2,4]oxadiazine-1(6H)-carboxylate], 57.2%.
For `CCCC[C@H]1ON(C(=O)OCc2cccc3ccccc23)C2CN(Cc3ccccc3)C(=O)[C@H](Cc3ccc(O)cc3)N2C1=O` (stereo partly drawn) [Compound I-11, (3R,6S)-naphthalen-1-ylmethyl 8-benzyl-3-butyl-6-(4-hydroxybenzyl)-4,7-dioxohexahydropyrazino[2,1-c][1,2,4]oxadiazine-1(6H)-carboxylate] the value was 51.7%; for `CCCC[C@H]1ON(C(=O)OCc2cccc3ccccc23)C2CN(C(C)C)C(=O)[C@H](Cc3ccc(O)cc3)N2C1=O` (stereo partly drawn) [Compound I-12, (3R,6S)-naphthalen-1-ylmethyl 3-butyl-6-(4-hydroxybenzyl)-8-isopropyl-4,7-dioxohexahydropyrazino[2,1-c][1,2,4]oxadiazine-1(6H)-carboxylate], 71%.
As to `CC(C)C[C@H]1ON(C(=O)OCc2cccc3ccccc23)C2CN(CCC(N)=O)C(=O)[C@H](CC3CCCCC3)N2C1=O` (stereo partly drawn) [Compound I-13, (3R,6S)-naphthalen-1-ylmethyl 8-(3-amino-3-oxopropyl)-6-(cyclohexylmethyl)-3-isobutyl-4,7-dioxohexahydropyrazino[2,1-c][1,2,4]oxadiazine-1(6H)-carboxylate], the inhibition at 10 µM came out at 55.5%.
For `CC(C)C[C@H]1ON(C(=O)OCc2cccc3ccccc23)C2CN(C(C)C)C(=O)[C@H](Cc3ccc(O)cc3)N2C1=O` (stereo partly drawn) [Compound I-14, (3R,6S)-naphthalen-1-ylmethyl 6-(4-hydroxybenzyl)-3-isobutyl-8-isopropyl-4,7-dioxohexahydropyrazino[2,1-c][1,2,4]oxadiazine-1(6H)-carboxylate] the value was 64.8%; for `CC(C)CCN1CC2N(C(=O)OCc3cccc4ccccc34)O[C@H](Cc3ccccc3)C(=O)N2[C@@H](C)C1=O` (stereo partly drawn) [Compound I-15, (3R,6S)-naphthalen-1-ylmethyl 3-benzyl-8-isopentyl-6-methyl-4,7-dioxohexahydropyrazino[2,1-c][1,2,4]oxadiazine-1(6H)-carboxylate], 52.6%; for `CC(C)CCN1CC2N(C(=O)OCc3cccc4ccccc34)O[C@H](Cc3ccccc3)C(=O)N2[C@@H](Cc2ccc(O)cc2)C1=O` (stereo partly drawn) [Compound I-16, (3R,6S)-naphthalen-1-ylmethyl 3-benzyl-6-(4-hydroxybenzyl)-8-isopentyl-4,7-dioxohexahydropyrazino[2,1-c][1,2,4]oxadiazine-1(6H)-carboxylate], 79.8%.
For the compound `CC(C)N1CC2N(C(=O)OCc3cccc4ccccc34)O[C@H](Cc3ccccc3)C(=O)N2[C@@H](Cc2ccc(O)cc2)C1=O` (stereo partly drawn) [Compound I-17, (3R,6S)-naphthalen-1-ylmethyl 3-benzyl-6-(4-hydroxybenzyl)-8-isopropyl-4,7-dioxohexahydropyrazino[2,1-c][1,2,4]oxadiazine-1(6H)-carboxylate], the inhibition at 10 µM is 88%.
Turning to `CC(C)[C@H]1C(=O)N(CC2CCCCC2)CC2N(C(=O)OCc3cccc4ccccc34)O[C@H](CC(N)=O)C(=O)N21` (stereo partly drawn) [Compound I-18, (3R,6S)-naphthalen-1-ylmethyl 3-(2-amino-2-oxoethyl)-8-(cyclohexylmethyl)-6-isopropyl-4,7-dioxohexahydropyrazino[2,1-c][1,2,4]oxadiazine-1(6H)-carboxylate], the inhibition at 10 µM worked out at 54%.
With `CC(C)[C@H]1C(=O)N(Cc2cccc3ccccc23)CC2N(C(=O)OCc3cccc4ccccc34)O[C@H](CC(N)=O)C(=O)N21` (stereo partly drawn) [Compound I-19, (3R,6S)-naphthalen-1-ylmethyl 3-(2-amino-2-oxoethyl)-6-isopropyl-8-(naphthalen-1-ylmethyl)-4,7-dioxohexahydropyrazino[2,1-c][1,2,4]oxadiazine-1(6H)-carboxylate], the inhibition at 10 µM amounted to 67.3%.
In the case of `CCCC[C@H]1C(=O)N(CCC(C)C)CC2N(C(=O)OCc3cccc4ccccc34)O[C@H](CC(N)=O)C(=O)N21` (stereo partly drawn) [Compound I-20, (3R,6S)-naphthalen-1-ylmethyl 3-(2-amino-2-oxoethyl)-6-butyl-8-isopentyl-4,7-dioxohexahydropyrazino[2,1-c][1,2,4]oxadiazine-1(6H)-carboxylate] it was 66.1%.
Turning to `CC(C)CCN1CC2N(C(=O)OCc3cccc4ccccc34)O[C@H](CC(N)=O)C(=O)N2[C@@H](Cc2ccccc2)C1=O` (stereo partly drawn) [Compound I-21, (3R,6S)-naphthalen-1-ylmethyl 3-(2-amino-2-oxoethyl)-6-benzyl-8-isopentyl-4,7-dioxohexahydropyrazino[2,1-c][1,2,4]oxadiazine-1(6H)-carboxylate], the inhibition at 10 µM came out at 60%.
